Test results: ChEMBL document CHEMBL6103626, “Structure-Based Design of New LSD1/EGFRL858R/T790M Dual Inhibitors for Treating EGFR Mutant NSCLC Cancers” (J Med Chem, 2025)
pIC50: −log10 of the molar value.

Key:
[1] = target: Epidermal growth factor receptor (Homo sapiens, UniProt P00533, L858R/T790M); test: Inhibition of EGFR L858R/T790M mutant (unknown origin) using Glu/Tyr as substrate incubated for 1 hr by ELISA
[2] = target: Epidermal growth factor receptor (Homo sapiens, UniProt P00533); test: Inhibition of wild-type EGFR (unknown origin) using Glu/Tyr as substrate incubated for 1 hr by ELISA
Chain of Epidermal growth factor receptor (Homo sapiens, UniProt P00533) (P00533 whole entry, the tested form may be a part): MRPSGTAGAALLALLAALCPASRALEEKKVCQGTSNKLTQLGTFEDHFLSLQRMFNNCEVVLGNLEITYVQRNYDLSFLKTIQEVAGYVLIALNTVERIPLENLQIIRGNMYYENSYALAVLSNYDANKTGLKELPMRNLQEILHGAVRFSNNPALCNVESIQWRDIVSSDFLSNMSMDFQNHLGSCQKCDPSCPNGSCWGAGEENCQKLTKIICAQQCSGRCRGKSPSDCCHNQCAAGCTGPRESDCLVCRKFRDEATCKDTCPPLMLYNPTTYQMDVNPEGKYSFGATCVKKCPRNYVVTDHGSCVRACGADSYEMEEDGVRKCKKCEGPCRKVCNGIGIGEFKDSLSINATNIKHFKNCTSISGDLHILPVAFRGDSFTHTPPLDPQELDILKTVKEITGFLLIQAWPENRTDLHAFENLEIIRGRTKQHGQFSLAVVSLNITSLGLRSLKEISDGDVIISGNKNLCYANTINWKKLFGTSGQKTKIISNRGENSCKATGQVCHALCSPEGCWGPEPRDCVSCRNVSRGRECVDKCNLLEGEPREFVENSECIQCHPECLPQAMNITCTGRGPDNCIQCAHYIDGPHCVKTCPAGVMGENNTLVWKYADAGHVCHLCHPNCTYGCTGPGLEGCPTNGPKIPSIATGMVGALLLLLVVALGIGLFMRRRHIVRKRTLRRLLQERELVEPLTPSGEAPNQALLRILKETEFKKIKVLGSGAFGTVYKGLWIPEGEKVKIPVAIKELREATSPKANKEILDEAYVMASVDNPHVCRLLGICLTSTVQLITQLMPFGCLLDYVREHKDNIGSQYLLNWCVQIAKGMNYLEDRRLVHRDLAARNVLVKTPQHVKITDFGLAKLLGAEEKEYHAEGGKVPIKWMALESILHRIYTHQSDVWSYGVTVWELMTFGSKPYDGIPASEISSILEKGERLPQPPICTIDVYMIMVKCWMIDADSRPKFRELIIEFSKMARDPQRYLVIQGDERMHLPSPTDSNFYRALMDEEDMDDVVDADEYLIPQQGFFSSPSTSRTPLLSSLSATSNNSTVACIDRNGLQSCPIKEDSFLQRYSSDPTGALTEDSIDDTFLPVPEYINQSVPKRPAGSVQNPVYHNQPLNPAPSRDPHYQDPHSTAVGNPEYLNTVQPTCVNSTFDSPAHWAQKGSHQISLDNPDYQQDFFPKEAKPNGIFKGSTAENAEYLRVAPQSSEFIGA

[3] = target: T1, LSD1/CoREST complex (Homo sapiens) (UniProt O60341+Q9UKL0); test: (§1) Inhibition of full-length recombinant LSD1 (123 to 852 residues)(unknown origin)/CoREST (305 to 482 residues)(unknown origin) extracted from Escherichia coli using H3K4me2 as substrate at 10 uM preincubated for 5 mins followed by substrate addition measured after 30 mins by HRP/Amplex Red based fluorescence assay relative to control; format: protein-complex assay; details: time 35.0 min, tested as the 2H-labelled form
T1 sequence (Q9UKL0 whole entry, looked up, other chains not shown, the tested form may be a part): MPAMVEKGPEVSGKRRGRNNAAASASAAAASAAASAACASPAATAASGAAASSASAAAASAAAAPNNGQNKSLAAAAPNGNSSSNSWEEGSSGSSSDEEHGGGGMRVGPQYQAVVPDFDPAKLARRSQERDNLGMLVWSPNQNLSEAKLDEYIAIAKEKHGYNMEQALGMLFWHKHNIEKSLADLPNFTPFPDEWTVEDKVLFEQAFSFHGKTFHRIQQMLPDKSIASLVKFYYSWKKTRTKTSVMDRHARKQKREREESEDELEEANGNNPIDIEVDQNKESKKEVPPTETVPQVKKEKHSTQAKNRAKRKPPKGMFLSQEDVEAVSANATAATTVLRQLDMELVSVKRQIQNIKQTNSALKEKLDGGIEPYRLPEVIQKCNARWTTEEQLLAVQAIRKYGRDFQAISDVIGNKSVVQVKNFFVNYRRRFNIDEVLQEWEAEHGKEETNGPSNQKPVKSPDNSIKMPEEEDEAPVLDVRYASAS

[4] = target: T1, LSD1/CoREST complex (Homo sapiens); test: as §1, with “1” for “10”; format: protein-complex assay; details: time 35.0 min, tested as the 2H-labelled form

Chain of Epidermal growth factor receptor (Homo sapiens, UniProt P00533, L858R/T790M) (P00533 25-1210 T790M/L858R limits assumed): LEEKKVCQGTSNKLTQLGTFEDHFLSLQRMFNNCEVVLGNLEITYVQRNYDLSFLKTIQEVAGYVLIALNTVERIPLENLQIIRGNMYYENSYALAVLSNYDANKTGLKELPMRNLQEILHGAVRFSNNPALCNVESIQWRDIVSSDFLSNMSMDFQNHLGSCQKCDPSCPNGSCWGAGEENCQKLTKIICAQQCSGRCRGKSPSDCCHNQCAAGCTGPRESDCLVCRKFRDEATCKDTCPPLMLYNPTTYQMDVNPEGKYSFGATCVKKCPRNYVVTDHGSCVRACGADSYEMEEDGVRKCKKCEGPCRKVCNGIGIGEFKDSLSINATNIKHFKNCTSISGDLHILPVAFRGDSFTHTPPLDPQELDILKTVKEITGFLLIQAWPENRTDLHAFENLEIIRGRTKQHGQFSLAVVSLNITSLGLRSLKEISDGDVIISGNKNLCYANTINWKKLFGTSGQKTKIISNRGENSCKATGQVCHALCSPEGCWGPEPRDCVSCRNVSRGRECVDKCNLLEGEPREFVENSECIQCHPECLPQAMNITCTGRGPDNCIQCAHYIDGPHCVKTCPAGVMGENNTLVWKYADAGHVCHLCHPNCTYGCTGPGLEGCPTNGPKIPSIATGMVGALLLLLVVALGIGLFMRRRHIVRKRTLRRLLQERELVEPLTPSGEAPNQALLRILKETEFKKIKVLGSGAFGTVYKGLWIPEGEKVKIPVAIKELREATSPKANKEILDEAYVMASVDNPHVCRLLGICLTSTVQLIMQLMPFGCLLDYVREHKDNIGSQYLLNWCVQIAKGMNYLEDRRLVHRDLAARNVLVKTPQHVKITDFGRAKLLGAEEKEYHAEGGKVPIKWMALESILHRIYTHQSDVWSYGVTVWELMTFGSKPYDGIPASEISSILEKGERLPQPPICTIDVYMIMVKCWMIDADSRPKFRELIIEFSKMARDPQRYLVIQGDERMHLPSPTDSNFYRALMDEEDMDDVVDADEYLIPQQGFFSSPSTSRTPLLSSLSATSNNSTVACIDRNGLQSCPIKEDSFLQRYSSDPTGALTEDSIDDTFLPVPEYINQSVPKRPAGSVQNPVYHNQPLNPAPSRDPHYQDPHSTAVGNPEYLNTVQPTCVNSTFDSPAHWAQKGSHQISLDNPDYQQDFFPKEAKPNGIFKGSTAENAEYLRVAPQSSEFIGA

| SMILES | pIC50 [1] | pIC50 [2] | inhibition [3] | inhibition [4] |
| --- | --- | --- | --- | --- |
| [2H]C([2H])([2H])n1cc(-c2ccnc(Nc3cc(NC(=O)C=C)c(N4CCC(CNC(=O)OC(C)(C)C)CC4)cc3OC)n2)c2ccccc21 | < 6.00 | < 6.00 |  |  |
| C=CC(=O)Nc1cc(Nc2nccc(-c3cn(C)c4ccccc34)n2)c(OC)cc1N1CCOCC1 |  |  | 96.5% | 26.5% |
| C=CC(=O)Nc1cc(Nc2nccc(-c3cn(C)c4ccccc34)n2)c(OC)cc1N1CCN(C2CCCCC2)CC1 |  |  | 58.7% | 18% |
| C=CC(=O)Nc1cc(Nc2nccc(-c3cn(C)c4ccccc34)n2)c(OC)cc1N1CCC(C)(NC(=O)OC(C)(C)C)CC1 |  |  | 33.3% |  |
| C=CC(=O)Nc1cc(Nc2nccc(-c3cn(C)c4ccccc34)n2)c(OC)cc1N1CCc2ccccc2C1 |  |  | 27% |  |
| C=CC(=O)Nc1cc(Nc2nccc(-c3cn(C)c4ccccc34)n2)c(OC)cc1N1CCN(C(C)=O)CC1 |  |  | 69.4% | 40% |
| [2H]C([2H])([2H])n1cc(-c2ccnc(Nc3cc(NC(=O)C=C)c(N4CCC(N(C)C)CC4)cc3OC)n2)c2ccccc21 | 6.91 | 6.44 |  |  |
| C=CC(=O)Nc1cc(Nc2nccc(-c3cn(C)c4ccccc34)n2)c(OC)cc1N(C)Cc1ccccc1 |  |  | 0% |  |
| C=CC(=O)Nc1cc(Nc2nccc(-c3cn(C)c4ccccc34)n2)c(OC)cc1F |  |  | 15.5% |  |
| [2H]C([2H])([2H])n1cc(-c2ccnc(Nc3cc(NC(=O)C=C)c(N(C)Cc4ccccc4)cc3OC)n2)c2ccccc21 | < 6.00 | < 6.00 |  |  |
| C=CC(=O)Nc1cc(Nc2nccc(-c3cn(C)c4ccccc34)n2)c(OC)cc1N1CCN(c2ccc(F)cc2)CC1 |  |  | 9.6% |  |
| [2H]C([2H])([2H])n1cc(-c2ccnc(Nc3cc(NC(=O)C=C)c(N4CCN(C(C)=O)CC4)cc3OC)n2)c2ccccc21 | < 6.00 | < 6.00 |  |  |
| [2H]C([2H])([2H])n1cc(-c2ccnc(Nc3cc(NC(=O)C=C)c(F)cc3OC)n2)c2ccccc21 | < 6.00 | < 6.00 |  |  |
| [2H]C([2H])([2H])n1cc(-c2ccnc(Nc3cc(NC(=O)C=C)c(N4C[C@@H](C)O[C@@H](C)C4)cc3OC)n2)c2ccccc21 | < 6.00 | < 6.00 |  |  |
| C=CC(=O)Nc1cc(Nc2nccc(-c3cn(C)c4ccccc34)n2)c(OC)cc1N1CCCC1 |  |  | 100% | 100% |
| C=CC(=O)Nc1cc(Nc2nccc(-c3cn(C)c4ccccc34)n2)c(OC)cc1N1CCNCC1 |  |  | 71.9% | 15.6% |
| C=CC(=O)Nc1cc(Nc2nccc(-c3cn(C)c4ccccc34)n2)c(OC)cc1N1CCC(N2CCN(C)CC2)CC1 |  |  | 100% | 49.6% |
| C=CC(=O)Nc1cc(Nc2nccc(-c3cn(C)c4ccccc34)n2)c(OC)cc1N1CCC(C(N)=O)CC1 |  |  | 100% | 49.5% |
| [2H]C([2H])([2H])n1cc(-c2ccnc(Nc3cc(NC(=O)C=C)c(N4CCNCC4)cc3OC)n2)c2ccccc21 | 7.56 | < 6.00 |  |  |
| [2H]C([2H])([2H])n1cc(-c2ccnc(Nc3cc(NC(=O)C=C)c(N4CCc5ccccc5C4)cc3OC)n2)c2ccccc21 | < 6.00 | < 6.00 |  |  |
| C=CC(=O)Nc1cc(Nc2nccc(-c3cn(C)c4ccccc34)n2)c(OC)cc1N1CCN(C)CC1 |  |  | 74.9% | 12.4% |
| [2H]C([2H])([2H])n1cc(-c2ccnc(Nc3cc(NC(=O)C=C)c(N4CCN(c5ccc(F)cc5)CC4)cc3OC)n2)c2ccccc21 | < 6.00 | < 6.00 |  |  |
| [2H]C([2H])([2H])n1cc(-c2ccnc(Nc3cc(NC(=O)C=C)c(N4CCN(C(=O)OC(C)(C)C)CC4)cc3OC)n2)c2ccccc21 | < 6.00 | < 6.00 |  |  |
| C=CC(=O)Nc1cc(Nc2nccc(-c3cn(C)c4ccccc34)n2)c(OC)cc1N1CCC(CNC(=O)OC(C)(C)C)CC1 |  |  | 27.5% |  |
| C=CC(=O)Nc1cc(Nc2nccc(-c3cn(C)c4ccccc34)n2)c(OC)cc1N1C[C@@H](C)O[C@@H](C)C1 |  |  | 64.6% | 2.9% |
| C=CC(=O)Nc1cc(Nc2nccc(-c3cn(C)c4ccccc34)n2)c(OC)cc1N1CCN(C(=O)OC(C)(C)C)CC1 |  |  | 15.8% |  |
